{"source": "patent US20080293814A1", "about": "“CONCENTRATE ESMOLOL” (priority 2007, published 2008)", "assay": "pH dependence of esmolol degradation in solution", "format": "physicochemical", "description": "While lower concentration (e.g., 10 mg/ml) ready-to-use compositions of esmolol require an additional buffer to maintain pH, higher concentrations of esmolol in the present invention compositions, provide self-buffering capacity to the composition. […] The concentrate can include a pharmaceutically acceptable buffer to aid in maintaining the pH in a range of from about 3.5 to about 7.0. Preferably, the pH is maintained between about 4.5 and about 5.5, more preferably between 4.9 and 5.1.", "note": "Where a name gives a salt, the structure may show the parent alone."}
{"smiles": "COC(=O)CCc1ccc(OCC(O)CNC(C)C)cc1", "note": "(stereo not shown) [esmolol, methyl-3-[4-(2-hydroxy-3-isopropylamino)propoxy]phenylpropionate hydrochloride]", "values": [{"measurement": "pH at which esmolol is most stable", "value": "about 5.0"}]}
